According to paper PMC5094990, “Novel 1, 3-N, O-Spiroheterocyclic compounds inhibit heparanase activity and enhance nedaplatin-induced cytotoxicity in cervical cancer cells” (Oncotarget, 2016):

What was measured:
HeLa cells = test: MTT assay, growth inhibition of HeLa cells; type: cell-based, human; conditions: Homo sapiens, HeLa; for inhibition at 1 µM / inhibition at 5 µM / inhibition at 15 µM / inhibition at 30 µM / inhibition at 60 µM / inhibition at 120 µM / inhibition at 180 µM / inhibition at 240 µM: 48 hs, mean ± s, read-out: Growth inhibition rate in HeLa cells; for IC50: 48 hours, MTT, read-out: IC50, growth inhibition of HeLa cells
Procedure: Cells were cultured in improved medium supplemented with 10% FBS and kept at 37°C in a […] humidified atmosphere containing 5% CO2. Logarithmic phase cells were used for the experiment and were treated with different concentrations of different medications for different amounts of time. […] Inhibitors were made into 10 mM stock solutions with DMSO, filtered, and kept at room temperature away from light. These inhibitor stock solutions were diluted to the required concentration (1, 5, 15, 30, 60, 120, 180, or 240 μM) before every experiment. The final doses of nedaplatin were […]. In order to determine whether an HPA inhibitor sensitized cells to nedaplatin, 10 μM of inhibitor number 16 (No. 16) was added into each experimental well with nedaplatin.
200 μl of single-cell suspension at a density of 5 × 10^4 cells/ml was seeded into 96-well plates. When cells were adherent, the medium was replaced with 200 μl of medium containing different concentrations of inhibitor or nedaplatin, and the cells were further incubated for 24 hours to 96 hours respectively. 20 μl MTT solution ([…] in phosphate buffered saline (PBS)) was added to each well 4 hours before the treatment ended. The cells were then incubated for another 4 hours, after which the supernatants were removed. The cells were totally solubilized in 150 μl DMSO. OD values were measured at the wavelength of 492 nm with a reference wavelength of 630 nm. Inhibition rate (IR) in the cells was calculated as follows: IR = ((OD2-OD0)-(OD1-OD0))/(OD2-OD0) × 100%, where OD0 was the OD value of blank wells, OD2 was the value of normal control wells, and OD1 was the value of experimental wells. Each condition was replicated in six separate wells.

human recombinant HPA = biological target: T1, human recombinant HPA (Homo sapiens, UniProt Q9Y251); test: Detection of HPA activity inhibition (Heparan Degrading Enzyme Assay Kit); type: biochemical; conditions: 31 mIU human recombinant HPA, 37°C, 45 minutes; read-out: IC50, inhibitory effect on heparanase activity
T1 sequence (Q9Y251 158-543 limits assumed): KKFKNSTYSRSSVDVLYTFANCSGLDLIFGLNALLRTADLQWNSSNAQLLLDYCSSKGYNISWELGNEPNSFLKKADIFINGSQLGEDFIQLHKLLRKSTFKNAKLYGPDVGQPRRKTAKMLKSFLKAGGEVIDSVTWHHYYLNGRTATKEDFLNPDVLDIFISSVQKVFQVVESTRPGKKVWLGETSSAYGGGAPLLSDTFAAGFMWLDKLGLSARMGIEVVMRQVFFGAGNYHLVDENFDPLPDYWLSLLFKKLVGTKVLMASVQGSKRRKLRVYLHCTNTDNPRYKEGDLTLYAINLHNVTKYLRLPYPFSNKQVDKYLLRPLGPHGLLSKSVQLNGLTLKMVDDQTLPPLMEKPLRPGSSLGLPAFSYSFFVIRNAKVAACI
T1 sequence (Q9Y251 36-109 limits assumed): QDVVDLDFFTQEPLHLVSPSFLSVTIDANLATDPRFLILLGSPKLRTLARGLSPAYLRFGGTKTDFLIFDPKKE
Procedure: The final reaction volume of each vial was 100 μl. […] Then, 100 μl of terminating liquid was added into each well. OD values were examined at a wavelength of 450 nm. Each concentration was tested in three separate wells. GraphPad Prism 5 (GraphPad Prism Software Inc., San Diego) was used to calculate the inhibitory IC50 values.

| Structure (SMILES) | melting point [°C] | inhibition at 1 µM (HeLa cells) [%] | inhibition at 5 µM (HeLa cells) [%] | inhibition at 15 µM (HeLa cells) [%] | inhibition at 30 µM (HeLa cells) [%] | inhibition at 60 µM (HeLa cells) [%] | inhibition at 120 µM (HeLa cells) [%] | inhibition at 180 µM (HeLa cells) [%] | inhibition at 240 µM (HeLa cells) [%] | IC50 (HeLa cells) [µM] | IC50 (human recombinant HPA) [µM] |
| --- | --- | --- | --- | --- | --- | --- | --- | --- | --- | --- | --- |
| COc1ccc(C2CNC(c3c(F)cccc3F)OC23CCCCC3)cc1 (stereo not shown) | 131.7 to 132.6 | – | – | – | – | – | – | – | – | – | – |
| Clc1ccc(C2NCC(c3ccccc3)C3(CCCCC3)O2)cc1 (stereo not shown) [No. 11] | 127.7 to 128.5 | 1.22 ± 0.0789 | 2.65 ± 0.0739 | 5.26 ± 0.294 | 13.6 ± 1.22 | 41.8 ± 1.19 | 71.4 ± 1.15 | 97.18 ± 0.525 | 98.02 ± 0.465 | 70.2 | – |
| Fc1ccc(C2NCC(c3ccccc3)C3(CCCCC3)O2)cc1 (stereo not shown) [No. 12] | – | -5.15 ± 0.0626 | -1.54 ± 0.472 | 5.39 ± 0.33 | 8.76 ± 1.21 | 31.7 ± 1.21 | 55.5 ± 0.671 | 89.01 ± 0.491 | 90.89 ± 0.416 | 96.6 | – |
| Fc1cccc(F)c1C1NCC(c2ccccc2)C2(CCCCC2)O1 (stereo not shown) [No. 14] | 130.4 to 131.2 | 2.92 ± 0.155 | 4.05 ± 0.888 | 9.57 ± 0.761 | 17.9 ± 1.2 | 46.4 ± 1.22 | 78.58 ± 0.502 | 96.98 ± 0.86 | 98.96 ± 0.517 | 64.2 | 4.47 |
